Like-named read-outs stand apart in the source and are kept apart here.
Test: Ex vivo biodistribution in mice with MM1S tumor xenografts
Conditions: NSG, mouse; for tissue uptake at 0.5 h: 30 min p.i.; for tissue uptake at 1 h / tissue to tissue ratio at 1 h: 60 min p.i.; for tissue uptake at 1.5 h: 90 min p.i.; for tissue uptake at 2 h: 120 min p.i.; for tissue uptake at 5 min: 5 min p.i.
Description: Animal studies were performed under Johns Hopkins University Animal Care and Use Committee (ACUC‐approved protocol (Principal investigator: Sridhar Nimmagadda, Ph.D. and Protocol number M021M175). Male and female NSG mice (5‐6 weeks old) were used to establish xenografts by administering 3 million cells (50% Corning Matrigel) subcutaneously to form various tumor models within 3–4 weeks. Imaging or biodistribution studies (n = 3–5) were conducted on mice with tumor volumes of 100–200 mm^3. Disseminated tumor models were developed by injecting 4–5 million cells in saline intravenously for MOLP8 and MM1S‐Luc models (n = 4–5). Luciferase expressing MM1S cell line (MM1S‐Luc) was used to monitor cancer cell dissemination in the body. Tumor establishment was confirmed by injecting D‐Luciferin intraperitoneally (150 mg kg^−1) and imaged mice after 10 min in IVIS bioluminescence imaging system. Bone marrow tumors were ready for imaging after 25–30 d of implantation.
Mice with 100–200 mm^3 tumor volume were used for ex vivo biodistribution studies. For radiotracer pharmacokinetics studies, mice with MOLP8 tumor xenografts received ≈80 µCi (2.96 MBq) [^68Ga]Ga‐AJ206 and were sacrificed at pre‐determined time points (5, 30, 60 and 120 min). Similarly, for dosimetry study, mice with MM1S tumor xenografts received ≈80 µCi (2.96 MBq) of [^68Ga]Ga‐AJ206 and were sacrificed at pre‐determined time points (5, 30, 60, 90 and 120 min). All other mice were injected with ≈50µCi (1.85 MBq) [^68Ga]Ga‐AJ206 and were sacrificed at 60 min. The selected tissues were collected, weighed, counted, and their %ID g^−1 values calculated for biodistribution analysis. The tissues included blood, muscle, tumor, thymus, heart, lung, liver, pancreas, stomach, small intestine, large intestine, spleen, adrenals, kidney, bladder, femur, and brain.

[1] = both sexes, lung, 80 µCi, total radioactivity, MM1S xenograft mice, read-out: uptake in lung
[2] = both sexes, muscle, 80 µCi, MM1S xenograft mice, read-out: uptake in muscle
[3] = both sexes, pancreas, 80 µCi, total radioactivity, MM1S xenograft mice, read-out: uptake in pancreas
[4] = both sexes, small intestine (with contents), 80 µCi, MM1S xenograft mice, read-out: uptake in small intestine (with contents)
[5] = both sexes, spleen, 80 µCi, total radioactivity, MM1S xenograft mice, read-out: uptake in spleen
[6] = both sexes, stomach (with contents), 80 µCi, MM1S xenograft mice, read-out: uptake in stomach (with contents)
[7] = both sexes, thymus, 80 µCi, total radioactivity, MM1S xenograft mice, read-out: uptake in thymus
[8] = both sexes, tumor, 80 µCi, total radioactivity, MM1S xenograft mice, read-out: uptake in tumor
[9] = female, ovary, 80 µCi, MM1S xenograft mice, read-out: uptake in ovary

For `CC[C@H](C)[C@@H]1NC(=O)[C@@H]2CCCN2C(=O)[C@H](Cc2ccccc2)NC(=O)[C@H](CC(=O)O)NC(=O)[C@H](C)NC(=O)[C@@H]2CSCc3cc(cc(c3)CSC[C@H](NC(=O)[C@H](C)NC(=O)CCOCCOCCOCCNC(=O)CN3CCN(CC(=O)O)CCN(CC(=O)O)CC3)C(=O)N[C@@H](C(C)C)C(=O)N3CCC[C@H]3C(=O)N2)CSC[C@@H](C(N)=O)NC(=O)[C@H](Cc2ccc(O)cc2)NC(=O)[C@H](Cc2c[nH]c3ccccc23)NC1=O` [[^68Ga]Ga‐AJ206, metal not drawn], the tissue uptake at 0.5 h [1] was 3.43 ± 0.5 %ID/g, the tissue uptake at 1 h [1] was 0.67 ± 0.07 %ID/g and the tissue uptake at 1.5 h [1] was 0.95 ± 0.18 %ID/g. For the same compound, the tissue uptake at 2 h [1] was 0.4 ± 0.04 %ID/g, the tissue uptake at 1 h (both sexes, muscle, 2 mg/kg, MM1S xenograft mice with blocking dose (2 mg kg^−1 AJ206), read-out: uptake in muscle) was 0.21 ± 0.07 %ID/g and the tissue uptake at 5 min [2] was 1.96 ± 0.28 %ID/g. For the same compound, the tissue uptake at 0.5 h [2] was 0.55 ± 0.09 %ID/g, the tissue uptake at 1 h [2] was 0.13 ± 0.02 %ID/g and the tissue uptake at 1.5 h [2] was 0.18 ± 0.04 %ID/g. For the same compound, the tissue uptake at 2 h (both sexes, muscle, 80 µCi, total radioactivity, MM1S xenograft mice, read-out: uptake in muscle) was 0.09 ± 0.02 %ID/g, the tissue uptake at 1 h (both sexes, pancreas, 2 mg/kg, MM1S xenograft mice with blocking dose (2 mg kg^−1 AJ206), read-out: uptake in pancreas) was 0.64 ± 0.39 %ID/g and the tissue uptake at 5 min [3] was 3.55 ± 0.34 %ID/g. For the same compound, the tissue uptake at 0.5 h [3] was 0.79 ± 0.14 %ID/g, the tissue uptake at 1 h [3] was 0.19 ± 0.03 %ID/g and the tissue uptake at 1.5 h [3] was 0.26 ± 0.06 %ID/g. For the same compound, the tissue uptake at 2 h [3] was 0.17 ± 0.05 %ID/g, the tissue uptake at 5 min [4] was 5 ± 0.7 %ID/g and the tissue uptake at 0.5 h [4] was 0.95 ± 0.1 %ID/g. The tissue uptake at 1 h [4] was 0.2 ± 0.1 %ID/g, the tissue uptake at 1.5 h [4] was 0.41 ± 0.08 %ID/g and the tissue uptake at 2 h [4] was 0.52 ± 0.21 %ID/g. It also gave a tissue uptake at 1 h (both sexes, small intestine, 2 mg/kg, MM1S xenograft mice with blocking dose (2 mg kg^−1 AJ206), read-out: uptake in small intestine) of 0.87 ± 0.5 %ID/g, a tissue uptake at 1 h (both sexes, spleen, 2 mg/kg, MM1S xenograft mice with blocking dose (2 mg kg^−1 AJ206), read-out: uptake in spleen) of 0.9 ± 0.45 %ID/g and a tissue uptake at 5 min [5] of 6.41 ± 1.3 %ID/g. It also gave a tissue uptake at 0.5 h [5] of 1.21 ± 0.15 %ID/g, a tissue uptake at 1 h [5] of 0.41 ± 0.05 %ID/g and a tissue uptake at 1.5 h [5] of 0.43 ± 0.07 %ID/g. For the same compound, the tissue uptake at 2 h [5] was 0.28 ± 0.05 %ID/g, the tissue uptake at 5 min [6] was 1.65 ± 0.19 %ID/g and the tissue uptake at 0.5 h [6] was 0.54 ± 0.19 %ID/g. It also gave a tissue uptake at 1 h [6] of 0.32 ± 0.21 %ID/g, a tissue uptake at 1.5 h [6] of 0.82 ± 0.36 %ID/g and a tissue uptake at 2 h [6] of 0.47 ± 0.3 %ID/g. For the same compound, the tissue uptake at 1 h (both sexes, stomach, 2 mg/kg, MM1S xenograft mice with blocking dose (2 mg kg^−1 AJ206), read-out: uptake in stomach) was 1.01 ± 0.56 %ID/g, the tissue uptake at 5 min [7] was 16.5 ± 5.34 %ID/g and the tissue uptake at 0.5 h [7] was 2.67 ± 0.83 %ID/g. For the same compound, the tissue uptake at 1 h [7] was 0.69 ± 0.19 %ID/g, the tissue uptake at 1.5 h [7] was 0.84 ± 0.18 %ID/g and the tissue uptake at 2 h [7] was 0.33 ± 0.1 %ID/g. The tissue uptake at 1 h (both sexes, tumor, 2 mg/kg, MM1S xenograft mice with blocking dose (2 mg kg^−1 AJ206), read-out: uptake in tumor) was 1.37 ± 0.22 %ID/g, the tissue uptake at 5 min [8] was 3.09 ± 0.16 %ID/g and the tissue uptake at 0.5 h [8] was 4.15 ± 0.53 %ID/g. The tissue uptake at 1.5 h [8] was 1.6 ± 0.46 %ID/g, the tissue uptake at 2 h [8] was 1.3 ± 0.4 %ID/g and the tissue uptake at 1 h (both sexes, tumor, MM1S xenograft mice, read-out: uptake in tumor) was 2.48 ± 0.17 %ID/g. For the same compound, the tissue to tissue ratio at 1 h (both sexes, tumor/blood, total radioactivity, MM1S xenograft mice with blocking dose (2 mg kg^−1 AJ206), read-out: Tumor/Blood ratio) was 1.08 ± 0.4, the tissue to tissue ratio at 1 h (both sexes, tumor/blood, total radioactivity, MM1S xenograft mice, read-out: Tumor/Blood ratio) was 2.9 ± 0.65 and the tissue to tissue ratio at 1 h (both sexes, tumor/muscle, total radioactivity, MM1S xenograft mice with blocking dose (2 mg kg^−1 AJ206), read-out: Tumor/Muscle ratio) was 8.31 ± 2.41. It also gave a tissue to tissue ratio at 1 h (both sexes, tumor/muscle, total radioactivity, MM1S xenograft mice, read-out: Tumor/Muscle ratio) of 21.2 ± 3.4, a tissue uptake at 5 min [9] of 4.11 ± 1.4 %ID/g and a tissue uptake at 0.5 h [9] of 1.48 ± 0.32 %ID/g. The tissue uptake at 1 h [9] was 0.2 ± 0.06 %ID/g, the tissue uptake at 1.5 h [9] was 0.32 ± 0.14 %ID/g and the tissue uptake at 2 h [9] was 0.45 ± 0.15 %ID/g.
